Data set [1] concerns 3T3-L1 adipocytes. The data set can be described thus: Lipogenesis of 3T3-L1 adipocytes. The format is cell-based. The following applies: Mus musculus, TG readout, read-out: LG-3T3 IC50. As to the method:
3T3-L1 fibroblast cells (Zen-Bio) were grown in 96-well culture microplate (Corning) with growth media to around 90-100% confluency. Culture media was changed to differentiation media (growth media supplemented with 3-Isobutyl-1-Methylxanthine 500 μM, Dexamethasone 1 μM, insulin 10 μg/mL, and rosiglitazone 2 μM) plus serially diluted compounds prepared in DMSO (1:1000 dilution). After incubation for 2 days, media was changed to maintenance media (growth media supplemented with insulin 10 μg/mL) plus serially diluted compounds prepared in DMSO (1:1000 dilution) for around 1 week with media changed every 2 days. Upon completion of the treatment, culture media are discarded and 200 μL 0.01% SDS was added to each well and shaken for 1 hour to lyse the cells. Cell lysates were then transferred to 400 μL Folch's solution (chloroform: methanol=2:1) and mixed well. After centrifuge at 2,000 rpm for 20 min, 200 μL of the lower organic phase was transferred to a plate with 10 μL sample buffer (chloroform:Triton-100=3:1). Samples were blown dried under nitrogen and 200 μL triglyceride (TG) quantification reagent (Thermo Fisher Scientific) was added, mixed, and incubated at 37° C. for 30 min. TG concentration was determined by reading absorbance at 535 nm (Dynex MRX^e Magellan Biosciences) and calculated from standard curve.

Data set [2] deals with Human sebocytes. Put plainly: Proliferation of human sebocytes. The format is cell-based. The following applies: 24 hours, MTT, read-out: AP-Sebo IC50. As to the method:
Human sebocytes (Celprogen) and keratinocytes (ATCC) were grown in 96-well culture microplate (Coming) with growth media to around 50% confluency. Media was changed to growth media mixed with serially diluted compounds in DMSO (1:1000 dilution). After treatment for 24 hours, media was changed to 100 μL phenol red free DMEM and cell numbers were quantitated by using Vybrant® MTT Cell Proliferation Assay Kit (Molecular Probes). Ten μL of 12 mM MTT stock solution was added to each well and the microplate was incubated at 37° C. for 4 hours. Then 100 μL of the SDS-HCl solution was added to each well and mixed thoroughly using a pipette. The microplate was incubated at 37° C. for 4 hours in a cell culture incubator. The microplate was mixed again using a pipette and absorbance was read at 570 nm (Dynex MRX^e Magellan Biosciences). Effect of compounds on proliferation of human keratinocytes was calculated by % of DMSO vehicle control.

For data set [3], the system named is T1, Mouse ACC (ACC protein purified from liver).
T1 construct: ACC protein was purified by taking advantage of the biotinylation in the carboxylase domain
Put plainly: Mouse ACC enzymatic activity assay. In kind it is biochemical. The following applies: read-out: EA-CoA mACC IC50. On the procedure:
ACC protein was purified by taking advantage of the biotinylation in the carboxylase domain. Male C57BL/6J mice (Jackson Laboratory) at 8-12 weeks of age were euthanized by using CO2 inhalation method and liver was immediately frozen on dry ice. To 100 mg liver was added 1 mL ice-cold tissue lysis buffer (20 mM Tris-HCl pH 7.5, 150 mM NaCl, 1 mM Na2EDTA, 1 mM EGTA, 1% Triton, 2.5 mM sodium pyrophosphate, 1 mM 3-glycerophosphate, 1 mM Na3VO4, 1 μg/mL leupeptin, 1 tablet of protease inhibitor cocktail (Roche) per 10 mL lysis buffer) followed by homogenization on ice with Power Gen 125 homogenizer (Fisher Scientific). After 30 min incubation on ice, tissue lysate was passed through a 10 mL syringe with 18½ G needle for 10 times to shear DNA. The lysate was then subject to 17.5%-35% saturated ammonium sulfate precipitation by adding 880 mg ammonium sulfate powder (Sigma) to 10 mL liver lysate in 10 min with stirring on ice. Sample was centrifuged at 14,000 rpm (Eppendorf) at 4° C. for 10 min and supernatant was saved for further precipitation by adding 880 mg ammonium sulfate powder to 10 ml supernatant in 10 min with stirring on ice. Sample was centrifuged at 14,000 rpm at 4° C. for 10 min. Supernatant was discarded and pellet was dissolved in 10 mL sample buffer (100 mM Tris-HCl, pH 7.5, 1 mM EDTA, 0.1 mM DTT, 0.5 M NaCl, and 5% glycerol). The sample was then added with 1 mL of Strep Mag beads slurry (Genscript) and rotated at 4° C. for 1 hour. Supernatant was discarded and beads were washed with sample buffer for 3 times. Protein was then eluted by adding 10 mL of 2 mM biotin (Promega) prepared in sample buffer. The eluate was then dialyzed at 4° C. for 1 hour by using Slide-A-Lyzer™ Dialysis Cassettes 10K MWCO (Thermo Fisher Scientific) against 3 changes of 200 mL dialysis buffer (50 mM HEPES, pH 7.5, 0.1 mM DTT, 1.0 mM EDTA, and 10% glycerol). Total protein concentration was then quantitated by using BCA protein assay kit (Pierce).
For ACC enzymatic activity assay, 1 μL serial diluted compounds prepared in DMSO in duplicate were mixed with 8 μL dialyzed sample at 37° C. for 10 min. Ninety one L of reaction buffer (50 mM HEPES pH 7.5, 10 mM MgCl2, 2.0 mM DTT, 0.5 mM acetyl-CoA, 4.0 mM ATP, 15 mM ^13C-NaHCO3, 0.75 mg/mL BSA, 0.5 mM sodium citrate) was added to the tube and mixed thoroughly. After incubation at 37° C. for 1 hour, 300 μl ice-cold quenching buffer (acetonitrile:methanol=1:1, 20 μM carbutamide as internal standard) was added to each tube and mixed well to terminate the reaction. Samples were centrifuged at 14,000 rpm for 10 min (Eppendorf) and supernatant was loaded onto LC-MS/MS for quantitation of malonyl-^13C-CoA (Gao et al., Journal of chromatography B, Analytical technologies in the biomedical and life sciences 853, 303-313 (2007)).
Shimadzu LC system was used for sample analysis consisting of system controller (Shimadzu CBM-20A), autosampler (Shimadzu SIL-20A), pump A and B (Shimadzu LC-20AD), column oven (Shimadzu CTO-20A), and analytical column (Phenomenex Gemini 5u C18 11A, 100×2 mm). LC was running at 200 μL/min in the binary gradient mode with mobile phase A (5 mM Ammonium Acetate and 5 mM DMBA in water (1,3-Dimethylbutylamine)) and B (methanol). The samples were analyzed on an AB Sciex QTrap4000 LC-MS/MS triple quadrupole mass spectrometer (Applied Biosystems). Malonyl-CoA and malonyl-13C-CoA were monitored in positive ion mode following MRM transitions at 854.2/347.1 and 855.1/246.1, respectively. The product and internal standard were coeluted to the mass spectrometer in 3 s with 50% H2O, 25% MeCN, 25% acetone, and 5 mM ammonium acetate. Ion chromatograms were integrated using the Analyst 1.5.2 software. Peak area ratios were compared against a standard curve and final cellular concentration of malonyl-CoA or production rate of malonyl-13C-CoA was calculated as pmoles/mg protein per minute.

Data set [4] relates to liver triglycerides (TG) in C57BL/6J mice. Put plainly: Chronic treatment for reducing liver triglycerides in C57BL/6J mice. The format is in vivo, mouse. The following applies: male C57BL/6J mice; 30 mg per kilogram body weight in PEG400, oral gavage once per day for 2 weeks; FIG. 1, vs vehicle. On the procedure:
Male C57BL/6J mice (Jackson Laboratory) at around 9 weeks of age were treated with vehicle (0.5% methylcellulose or PEG400) or Example 14 (30 mg per kilogram body weight, dosing solution prepared in PEG400) and Example 20 (20 mg per kilogram body weight, dosing solution prepared in 0.5% methylcellulose) by oral gavage at ˜9:00 am, once per day for 2 weeks. Concentrations of Example 14 and Example 20 were 15 mg/ml and 2 mg/ml, respectively. The dosing volumes of Example 14 and Example 20 were 2 ml per kilogram body weight and 10 ml per kilogram body weight, respectively. After 14-day treatment, animals were euthanized in CO2 at 2 hours post dose and liver was frozen and kept on dry ice. Liver TG was measured by extracting lipids with chloroform:methanol 2:1 (v/v) followed by quantitation with Infinity™ Triglycerides Reagent (Thermo Scientific).

Data set [5] can be described thus: PK study in male C57 mouse for Examples 14 and 15. The format is in vivo. The following applies: for concentration at 0.5 h: 0.50 h. On the procedure: Pharmacokinetic studies were carried out with male C57 mouse. Compounds (Example 14 and Example 15) were each formulated in 5% DMSO+10% Solutol HS 15+85% Saline, and dosed at 1 mpk for IV injection (5 mL/kg) and 10 mpk for oral gavage (10 mUkg). Plasma samples at various time points were quantitated with LC-MS. Data reported were average of three mice.
Tables 1 and 2 below show plasma concentrations (ng/mL) and PK parameters of Example 14 in male C57 mouse after 1 mpk IV injection and 10 mpk PO gavage, respectively. The plasma concentration (ng/mL) of the acid compound, Example 15, was also measured and reported below.
Tables 3 and 4 below show plasma concentrations (ng/mL) and PK parameters of Example 15 in male C57 mouse after 1 mpk IV injection and 10 mpk PO gavage, respectively.

Setting [6] is: male, C57, mouse, plasma, iv, 1 mg/kg, Example 14 dosed 1 mpk IV, analyte = labelled compound.
[7] abbreviates: male, C57, mouse, plasma, po, 10 mg/kg, Example 14 dosed 10 mpk PO gavage, analyte = labelled compound.
Where [8] appears, read: plasma, 1 mg/kg, Example 14 dosed 1 mpk IV.

The values that follow come from patent US12102633B2, “Spirolactone compounds” (Quixgen, Inc., priority 2017, dated 2024).

pIC50: −log10 of the molar value. “Also recorded” adds a separate entry of the source.

Broadly, the pIC50 is −log10 of the IC50, conventionally taken in molar units. Turning to `CCc1ccc2c(c1)C(=O)OC1(CCN(C(=O)c3cc(OC)c4cccc(OC)c4c3)CC1)C2` [Example 3, 1′-(4,8-dimethoxy-2-naphthoyl)-7-ethylspiro[isochroman-3,4′-piperidin]-1-one], the pIC50 in data set [1] was 8.85; in data set [2], 7.35; in data set [3], 8.47.
The corresponding values for `CCc1ccc2c(c1)C(=O)OC1(CCN(C(=O)c3cc(OC)c4cccc(OC)c4n3)CC1)C2` [Example 4, 1′-(4,8-dimethoxyquinoline-2-carbonyl)-7-ethylspiro[isochroman-3,4′-piperidin]-1-one] are 7.56, 6.83 and 7.95.
In general, MRT refers to a mean duration of stay, worked out from the concentration-time curve. By Cmax is commonly meant the highest concentration seen after dosing. What is called Tmax is the time from dosing to the highest level. The term Vd denotes the apparent volume that relates the amount in the body to the concentration in plasma or blood. A word on the clearance: it is the volume of plasma or blood freed of the substance per unit of time. A high value points to a high capacity for elimination. A word on the half-life: it is the time in which the quantity being followed falls by half. Higher therefore signals slow loss. In the case of `COC(=O)c1cncc(-c2ccc3c(c2)C(=O)OC2(CCN(C(=O)c4cc(OC)c5cccc(OC)c5n4)CC2)C3)c1` [Example 14, methyl 5-(1′-(4,8-dimethoxyquinoline-2-carbonyl)-1-oxospiro[isochroman-3,4′-piperidin]-7-yl)nicotinate], the “Liver TG” value in data set [4] is “reduced liver triglycerides; also recorded: reduced liver TG”. Also, the “Plasma Concentration, Mean” value in data set [5] (Example 14 dosed 1 mpk IV, 8.00 h, analyte = labelled compound) is “BLQ”. The “Plasma Concentration, Mean” value in data set [5] (Example 14 dosed 1 mpk IV, 24.00 h, analyte = labelled compound) is listed as “BLQ”. Further, the F in data set [5] (Example 14 dosed 10 mpk PO gavage) is given as 88%. Also, the “Plasma Concentration, Mean” value in data set [5] (Example 14 dosed 10 mpk PO gavage, 24.00 h, analyte = labelled compound) is “BLQ”. The compound also showed an MRT in data set [5] (male, C57, mouse, plasma, iv, 1 mg/kg, Example 14 dosed 1 mpk IV) of 24.6 min. Also, in data set [5] (male, C57, mouse, plasma, iv, 1 mg/kg, Example 14 dosed 1 mpk IV, 0.08 h, analyte = labelled compound), the concentration at 0.08 h came out at 1880 ng/mL. Also, in data set [5] (setting [6]), the concentration at 0.25 h is 1080 ng/mL, the concentration at 0.5 h was 521 ng/mL, the concentration at 1 h was 199 ng/mL and the concentration at 2 h is 30 ng/mL. The compound further returned a concentration at 4 h in data set [5] (setting [6]) of 4.4 ng/mL. Also, in data set [5] (setting [7]), the concentration at 0.25 h was 3660 ng/mL, the concentration at 0.5 h is 5970 ng/mL, the concentration at 1 h was found to be 3160 ng/mL and the concentration at 2 h was 1010 ng/mL. Besides, in data set [5] (setting [7]), the concentration at 4 h worked out at 345 ng/mL, the Cmax was 6330 ng/mL, the MRT was found to be 96 min and the Tmax was found to be 25.2 min. Also, the concentration at 8 h in data set [5] (male, C57, mouse, plasma, po, 10 mg/kg, Example 14 dosed 10 mpk PO gavage, 8.00 h, analyte = labelled compound) amounted to 125 ng/mL. Moreover, in data set [5] (setting [8]), the Vd came to 0.49 L/kg, the clearance turned out to be 18.5 mL/min/kg and the half-life was 19.2 min.
